Assay results reported in paper PMC11995724, “Antibiotic target discovery by integrated phenotypic and activity-based profiling of electrophilic fragments” (Cell chemical biology, 2025).
Structures can show the parent of a compound that is named as a salt.

Assay: in vitro
Conditions: human, hek293t cells

In order of falling viability at 48 h, 25 µM:
1. CC(Cl)C(=O)N(C)Cc1ccnn1C (stereo not drawn) [5-L17, 2-chloro-N-methyl-N-[(1-methyl-1H-pyrazol-5-yl)methyl]propanamide]  134%
2. Cc1ccc(F)c(N2CCC(NC(=O)CCl)CC2)c1 [5-M14, 2-chloro-N-[1-(2-fluoro-5-methylphenyl)piperidin-4-yl]acetamide]  134%
3. O=C(CCl)NC(c1ccccc1)C1CC1 (stereo not drawn) [5-L16, 2-chloro-N-[cyclopropyl(phenyl)methyl]acetamide]  116%
4. CC(Cl)C(=O)Nc1ccc2oc(=O)n(CCN(C)C)c2c1 (stereo not drawn) [5-L19, 2-chloro-N-{3-[2-(dimethylamino)ethyl]-2-oxo-2,3-dihydro-1,3-benzoxazol-5-yl}propanamide]  109%
5. CC(Cl)C(=O)NC(C)c1cnn(CC2CCC2)c1 (stereo not drawn) [5-L15, 2-chloro-N-{1-[1-(cyclobutylmethyl)-1H-pyrazol-4-yl]ethyl}propanamide]  108%
6. CC(Cl)C(=O)Nc1ncc(C(F)(F)F)cc1Cl (stereo not drawn) [5-L22, 2-chloro-N-[3-chloro-5-(trifluoromethyl)pyridin-2-yl]propanamide]  105%
7. CC(NC(=O)CCl)C(=O)N1CCCCC1C (stereo not drawn) [5-M06, 2-chloro-N-[1-(2-methylpiperidin-1-yl)-1-oxopropan-2-yl]acetamide]  104%
8. CC(Cl)C(=O)NCc1conc1C1CCC1 (stereo not drawn) [5-L21, 2-chloro-N-[(3-cyclobutyl-1,2-oxazol-4-yl)methyl]propanamide]  101%
9. CC(=O)Nc1ccc(NC(=O)C(C)Cl)cc1 (stereo not drawn) [5-N06, 2-chloro-N-(4-acetamidophenyl)propanamide]  101%
10. CC(Cl)C(=O)Nc1ccc(N(C)C)cc1 (stereo not drawn) [5-N04, 2-chloro-N-[4-(dimethylamino)phenyl]propanamide hydrochloride]  99.3%
11. CC(Cl)C(=O)Nc1ccccc1F (stereo not drawn) [5-L10, 2-chloro-N-(2-fluorophenyl)propanamide]  99.2%
12. CC(Cl)C(=O)Nc1cccc(S(=O)(=O)N2CCCCC2)c1 (stereo not drawn) [5-L12, 2-chloro-N-[3-(piperidine-1-sulfonyl)phenyl]propanamide]  98.7%
13. COc1ccccc1NC(=O)C(C)Cl (stereo not drawn) [5-L20, 2-chloro-N-(2-methoxyphenyl)propanamide]  91.3%
14. CC(Cl)C(=O)NCCN1C(=O)CSC1=O (stereo not drawn) [5-M03, 2-chloro-N-[2-(2,4-dioxo-1,3-thiazolidin-3-yl)ethyl]propanamide]  87.2%
15. O=C(CCl)Nc1ccc(Cl)cc1[N+](=O)[O-] [5-N08, 2-chloro-N-(4-chloro-2-nitrophenyl)acetamide]  76.9%
16. CC(Cl)C(=O)NC1CCCc2ccccc21 (stereo not drawn) [5-M19, 2-chloro-N-(1,2,3,4-tetrahydronaphthalen-1-yl)propanamide]  74.2%
17. CC(Cl)C(=O)NC(C)c1ccc(Cl)cc1Cl (stereo not drawn) [5-M15, 2-chloro-N-[1-(2,4-dichlorophenyl)ethyl]propanamide]  69%
18. COc1ccccc1CNC(=O)C(C)Cl (stereo not drawn) [5-M21, 2-chloro-N-[(2-methoxyphenyl)methyl]propanamide]  68.7%
19. O=C(CCl)NCc1ccc(C(=O)N2CCOCC2)cc1 [5-L14, 2-chloro-N-{[4-(morpholine-4-carbonyl)phenyl]methyl}acetamide]  67.7%
20. CN(C)c1nc(N2CCOCC2)ncc1NC(=O)CCl [5-M22, 2-chloro-N-[4-(dimethylamino)-2-(morpholin-4-yl)pyrimidin-5-yl]acetamide]  38.9%
21. CC(C)C(C)N(Cc1ccns1)C(=O)CCl (stereo not drawn) [5-M12, 2-chloro-N-(3-methylbutan-2-yl)-N-[(1,2-thiazol-5-yl)methyl]acetamide]  9.67%
22. CC(NC(=O)CCl)c1cc(F)ccc1N(C)C (stereo not drawn) [5-L11, 2-chloro-N-{1-[2-(dimethylamino)-5-fluorophenyl]ethyl}acetamide]  9.52%
23. O=C(CCl)NC(c1ccccc1)c1nccs1 (stereo not drawn) [5-M13, 2-chloro-N-[phenyl(1,3-thiazol-2-yl)methyl]acetamide]  2.38%
24. Cc1cc(C)n2c(-c3c(Cl)cccc3NC(=O)CCl)nnc2n1 [5-M16, 2-chloro-N-(3-chloro-2-{5,7-dimethyl-[1,2,4]triazolo[4,3-a]pyrimidin-3-yl}phenyl)acetamide]  1.81%
25. CC(=O)NC1Cc2ccccc2N(C(=O)CCl)C1 (stereo not drawn) [5-M20, N-[1-(2-chloroacetyl)-1,2,3,4-tetrahydroquinolin-3-yl]acetamide]  1.81%
26. Cc1csc(COC2CCN(C(=O)CCl)C2)n1 (stereo not drawn) [5-M08, 2-chloro-1-{3-[(4-methyl-1,3-thiazol-2-yl)methoxy]pyrrolidin-1-yl}ethan-1-one]  1.8%
27. Cc1nc(C#N)c(N2CCN(C(=O)CCl)CC2)o1 [5-L18, 5-[4-(2-chloroacetyl)piperazin-1-yl]-2-methyl-1,3-oxazole-4-carbonitrile]  1.74%
28. CC(c1cnn(C)c1)N(C)C(=O)CCl (stereo not drawn) [5-M04, 2-chloro-N-methyl-N-[1-(1-methyl-1H-pyrazol-4-yl)ethyl]acetamide]  1.55%
29. Cc1nn(C)c(C)c1C(NC(=O)CCl)C(F)(F)F (stereo not drawn) [5-M18, 2-chloro-N-[2,2,2-trifluoro-1-(1,3,5-trimethyl-1H-pyrazol-4-yl)ethyl]acetamide]  1.44%
30. O=C(NCc1ccco1)C1CCCN1C(=O)CCl (stereo not drawn) [5-N05, 1-(2-chloroacetyl)-N-[(furan-2-yl)methyl]pyrrolidine-2-carboxamide]  1.39%
31. Cc1ccc(CN(Cc2c(C)noc2C)C(=O)CCl)c(C)c1 [5-N03, 2-chloro-N-[(3,5-dimethyl-1,2-oxazol-4-yl)methyl]-N-[(2,4-dimethylphenyl)methyl]acetamide]  1.14%
32. Cc1nn(CC(C)C)c(Cl)c1C1CCCN1C(=O)CCl (stereo not drawn) [5-L13, 2-chloro-1-{2-[5-chloro-3-methyl-1-(2-methylpropyl)-1H-pyrazol-4-yl]pyrrolidin-1-yl}ethan-1-one]  0.964%
33. CN(C(=O)CCl)C1CCCCC1 [5-N07, 2-chloro-N-cyclohexyl-N-methylacetamide]  0.964%
34. O=C(CCl)N1CCCC1c1nc(Cc2ccc(F)cc2)no1 (stereo not drawn) [5-M10, 2-chloro-1-(2-{3-[(4-fluorophenyl)methyl]-1,2,4-oxadiazol-5-yl}pyrrolidin-1-yl)ethan-1-one]  0.55%
35. O=C(CCl)NC1CCSc2ccc(F)cc21 (stereo not drawn) [5-M09, 2-chloro-N-(6-fluoro-3,4-dihydro-2H-1-benzothiopyran-4-yl)acetamide]  0.504%
36. O=C(CCl)N1N=C(c2ccco2)CC1c1cccc(Cl)c1 (stereo not drawn) [5-M17, 2-chloro-1-[5-(3-chlorophenyl)-3-(furan-2-yl)-4,5-dihydro-1H-pyrazol-1-yl]ethan-1-one]  0.403%
37. C=CCN(Cc1ccc(Cl)s1)C(=O)CCl [5-M05, 2-chloro-N-[(5-chlorothiophen-2-yl)methyl]-N-(prop-2-en-1-yl)acetamide]  0.327%
38. Cc1ccc(NC(=O)C2CSCN2C(=O)CCl)c(C)c1 (stereo not drawn) [5-M07, 3-(2-chloroacetyl)-N-(2,4-dimethylphenyl)-1,3-thiazolidine-4-carboxamide]  0.0812%
39. O=C(CCl)N1C2CCC1c1ccccc12 [5-M11, 1-{11-azatricyclo[6.2.1.0,2,7]undeca-2,4,6-trien-11-yl}-2-chloroethan-1-one]  -0.105%
